{
  "source": "patent US9656984B2",
  "about": "“PI3K/AKT/mTOR inhibitors and pharmaceutical uses thereof” (UNIVERSITE DE RENNES 1, priority 2013, dated 2017)",
  "test_system": "AKT phosphorylation",
  "experiment": "In cellulo IC50 of AKT phosphorylation in CEM cells (Western blot densitometry)",
  "type": "cell-based",
  "conditions": "Homo sapiens, CCRF-CEM, 2 hours incubation, AKT phosphorylation vs whole AKT, read-out: In vivo IC50",
  "protocol": "CEM cells were incubated for 2 hours with the indicated concentrations of each mentioned compound of formula (I). Cells were then lysed and 100 μg of protein was loaded per line in an SDS-PAGE. Bands from AKT phosphorylation and whole AKT observed by Western blot were scanned and quantified by densitometric analysis. Based on these values, an in cellulo IC50 (half maximal inhibitory concentration) was measured for each compound of formula (I).\nImmunoblots Excepted for immunoprecipitation experiments in which cells were lyzed with RIPA buffer, cells were lyzed for 30 min at 4° C. in Lysis buffer (25 mM HEPES pH 7.4, 1% v/v Triton X-100, 150 mM NaCl, 2 mM EGTA supplemented with a mix of protease inhibitors). Protein concentration was determined by the bicinchoninic acid method (Pierce, Rockford, Ill., USA) according to the manufacturer's protocol. Proteins were resolved by 8, 10 or 12% SDS-PAGE and transferred to a nitrocellulose membrane (GE Healthcare, Buckinghamshire, UK). The membrane was blocked 15 min with TBST (50 mM Tris, 160 mM NaCl, 0.05% v/v Tween 20, pH 7.4) containing 5% w/v dried skimmed milk (TBS™). Primary antibody was incubated overnight at 4° C. in TBS™. The membrane was intensively washed (TBST) and then the peroxydase-labeled anti-mouse IgG1 or IgG2a (CliniSciences, Nanterre, France) was added for 45 min. Proteins were visualized with the enhanced chemiluminescence substrate kit (ECL RevelBIOt®, Ozyme, Saint Quentin en Yvelines, France).",
  "note": "pIC50: −log10 of the molar value.",
  "data": [
    {"compound": "O=[N+]([O-])C1=Cc2cc(Br)cc(Br)c2OC1c1ccc(Br)cc1", "note": "(stereo not shown) [Compound 25, 6,8-dibromo-2-(4-bromo-phenyl)-3-nitro-2H-chromene]", "values": [
      {"measurement": "pIC50", "value": 5.52}
    ]}
  ]
}
